Test results published in article PMC12048447, “PANTAX: a phase Ib clinical trial of the efflux pump inhibitor SCO-101 in combination with gemcitabine and nab-paclitaxel in non-resectable or metastatic pancreatic cancer” (Investigational New Drugs, 2025).

How the values were obtained:
PDAC patients [1] = tested on: PDAC patients; parameters: method as in PMID 20107864; conditions: phase II trial; cited from earlier work
PANC-1-Pac cells = test: MTT cell viability and ZIP synergy in paclitaxel-resistant PANC-1-Pac cells; type: cell-based, human; conditions: for ZIP synergy score with paclitaxel: PANC-1-Pac cells, score above 10 indicates synergy
Source text: (§1) A paclitaxel-sensitive human PDAC cell line, PANC-1, was obtained (ATCC, CRL-1469) and the derived paclitaxel-resistant PANC-1-Pac cell line was established by gradually increasing concentrations of paclitaxel over a period of 2–4 months. Standard MTT and crystal violet assays were applied to evaluate the effect of treatment with either combinations of SCO-101 and paclitaxel or SRPK1-inhibitor and paclitaxel. Details are presented in the Online Resource.
Statistical analyses were mainly descriptive and included mean, median, range, and 95% CIs. Kaplan–Meier plots were constructed using Stata version 18 (StataCorp, 2023). In the preclinical study, the zero interaction potency (ZIP) synergy score was calculated as described by Yadav et al., to quantify the deviation from the expectation of zero interaction between drugs. A ZIP synergy score above 10 indicates synergy.
as §1, with “line PANC-1” for “line, PANC-1,”, “2-4” for “2–4”, “SCO-101/paclitaxel” for “SCO-101 and paclitaxel”, “SRPK1 inhibitor/paclitaxel.” for “SRPK1-inhibitor and paclitaxel. Details are presented in the Online Resource.”
The selection began at 1 nM, increased to 2 nM and 4 nM, and ended at 8 nM. For each drug concentration the cells were kept for three passages. To evaluate the effect of the treatment either a Crystal Violet assay or MTT (3-(4,5-dimethylthiazol-2-yl)-2,5-diphenyltetrazolium bromide) assay were applied.
The MTT was conducted according to standard conditions. In short, cells were seeded at a density of 7,000 cells/well into a 96-well. One day after seeding, the cells were experimentally treated. Control conditions consisted of either growth medium (‘untreated’) or DMSO diluted in growth medium. All treatments were performed in triplicates. The cells were then kept in the CO2 incubator at 37 °C for 72 hours and plates were incubated with 100μl 1:10 MTT (0.5 mg/ml dissolved in phosphate buffered saline) for 3 hours and hereafter stopped using 100μl/well stop buffer (50g Sodium Dodecyl Sulphate, 245 mL MiliQ H2O, 5mL 1.0 N HCl was added to dissolve the formazan crystals overnight. Optical densities were measured at 570 and 670 nm.
Experiments with 4 different concentrations of either SCO-101 or paclitaxel and their combinations were applied to test for synergy among these two compounds in both the PANC-1 parental and -Paclitaxel resistant cells. SCO-101 was applied in 10, 20, 40 and 50 µM whereas paclitaxel was tested in 5, 10, 15 and 20 nM for a total of 144 h, where drug was only present in the first 72h (sFig 2). The SRPK1 inhibitor SPHINX31 was tested at 0.1; 0.5; 1 and 5 µM. The SRPK1 inhibitor SRPIN was tested at 1; 5; 10 and 50 µM. Both inhibitors were tested in combination with 5, 10, 15 and 20 nM Paclitaxel.
PANC-1-Pac cells treated with paclitaxel and SRPIN340 with four different concentrations of each for a total of 144 hours. Cell viability was evaluated by MTT assays and reported as percentage of untreated control (medium). Error bars indicate percentage standard deviation.

PDAC patients [2] = tested on: PDAC patients; parameters: method as in PMID 16034525; conditions: clinical phase II study; cited from earlier work
[3] = tested on: patients with metastatic PDAC; parameters: method as in PMID 24131140; conditions: MPACT phase III; cited from earlier work

O=c1c(-c2ccc(O)cc2)coc2cc(O)cc(O)c12 [genistein]
effect when added to erlotinib and Gem (PDAC patients [1]): no clear effect on survival

O=C(Nc1cc(C(F)(F)F)ccc1N1CCN(Cc2ccccn2)CC1)c1ccc(-c2ccncc2)o1 [SPHINX31]
ZIP synergy score with paclitaxel (PANC-1-Pac cells; SPHINX31 + paclitaxel for 144 h): 57.037

CC(=O)O[C@H]1C(=O)[C@@]2(C)[C@H]([C@H](OC(=O)c3ccccc3)[C@]3(O)C[C@H](OC(=O)[C@H](O)[C@@H](NC(=O)c4ccccc4)c4ccccc4)C(C)=C1C3(C)C)[C@]1(OC(C)=O)CO[C@@H]1C[C@@H]2O [paclitaxel]
effect on PANC-1-Pac cells (cell viability), drug alone (PANC-1-Pac cells; 72 h with drug + 72 h fresh media): dose-dependent effect | resistant phenotype to paclitaxel relative to parental PANC-1 control cell line (PANC-1-Pac cells; PANC-1-Pac vs PANC-1, MTT, 72 hours): five times higher

O=C(Nc1cc(C(F)(F)F)ccc1N1CCCCC1)c1ccncc1 [SRPIN340]
ZIP synergy score with paclitaxel (PANC-1-Pac cells; SRPIN340 + paclitaxel, 72 h with drug + 72 h fresh media): 21.4

Cc1ccc(-c2cc(C(F)(F)F)nn2-c2ccc(S(N)(=O)=O)cc2)cc1 [celecoxib]
effect when combined with Gem and cisplatin (PDAC patients [2]): no apparent effect

Nc1ccn([C@@H]2O[C@H](CO)[C@@H](O)C2(F)F)c(=O)n1 [Gem, gemcitabine]
median overall survival (mOS) [3]: 6.7 months | objective response rate (ORR) [3]: 7%
